This note sets out measurements from patent publication US20190031615A1, “3-ETHYL-3-PHENYLAZEPANE DERIVATIVES HAVING MULTIMODAL ACTIVITY AGAINST PAIN” (LABORATORIOS DEL DR. ESTEVE S.A., priority 2016, published 2019).

Where only a bound is given, the exact number is not on record here.

This test deals with σ1 receptor and μ-opioid receptor. Briefly: Human σ1 receptor and human μ-opioid receptor radioligand assays (dual binding scale). Further details: key to μ and σ1 dual binding: +: Both Ki-μ and Ki-σ1>=500 nM; ++: One Ki <500 nM while the other Ki is >=500 nM; +++: Both Ki-μ and Ki-σ1 <500 nM; ++++: Both Ki-μ and Ki-σ1 <100 nM. The note with it: joint class for both Ki; σ1: [3H](+)-pentazocine, transfected HEK-293 membranes; μ: [3H]-DAMGO, transfected CHO-K1 cell membranes. As for the experimental part:
To investigate binding properties of test compounds to human […] receptor, transfected HEK-293 membranes and [^3H](+)-pentazocine (Perkin Elmer, NET-1056), as the radioligand, were used. The assay was carried out with 7 μg of membrane suspension, 5 nM of [^3H](+)-pentazocine in either absence or presence of either buffer or 10 μM Haloperidol for total and non-specific binding, respectively. Binding buffer contained Tris-HCl 50 mM at pH 8. Plates were incubated at 37° C. for 120 minutes. After the incubation period, the reaction mix was then transferred to MultiScreen HTS, FC plates (Millipore), filtered and plates were washed 3 times with ice-cold 10 mM Tris-HCL (pH7.4). Filters were dried and counted at approximately 40% efficiency in a MicroBeta scintillation counter (Perkin-Elmer) using EcoScint liquid scintillation cocktail
To investigate binding properties of test compounds to human μ-opioid receptor, transfected CHO-K1 cell membranes and [^3H]-DAMGO (Perkin Elmer, ES-542-C), as the radioligand, were used. The assay was carried out with 20 μg of membrane suspension, 1 nM of [^3H]-DAMGO in either absence or presence of either buffer or 10 μM Naloxone for total and non-specific binding, respectively. Binding buffer contained Tris-HCl 50 mM, MgCl2 5 mM at pH 7.4. Plates were incubated at 27° C. for 60 minutes. After the incubation period, the reaction mix was then transferred to MultiScreen HTS, FC plates (Millipore), filtered and plates were washed 3 times with ice-cold 10 mM Tris-HCL (pH 7.4). Filters were dried and counted at approximately 40% efficiency in a MicroBeta scintillation counter (Perkin-Elmer) using EcoScint liquid scintillation cocktail.
As for `CCOCCN1CCCC[C@@](CC)(c2cccc(O)c2)C1` (stereo in doubt) [Example 20, (S)-3-(1-(2-ethoxyethyl)-3-ethylazepan-3-yl)phenol], the “μ and σ1 dual binding” value is listed as “++”.
Turning to `CCOCCN1CCCC[C@](CC)(c2cccc(O)c2)C1` (stereo in doubt) [Example 21, (R)-3-(1-(2-ethoxyethyl)-3-ethylazepan-3-yl)phenol], the “μ and σ1 dual binding” value is on record as “++”.
`CCC1(c2cccc(OC)c2)CCCCN(CCN2CCN(C)CC2)C1` (stereo not shown) [Example 1, 3-Ethyl-3-(3-methoxyphenyl)-1-(2-(4-methylpiperazin-1-yl)ethyl)azepane] displayed a Ki of no less than 500 nM.
Same read-out and setting: then `CCC1(c2cccc(OC)c2)CCCCN(CCN2CCOCC2)C1` (stereo not shown) [Example 3, 4-(2-(3-Ethyl-3-(3-methoxyphenyl)azepan-1-yl)ethyl)morpholine], with no less than 500 nM; and `CCC1(c2cccc(OC)c2)CCCCN(CCN2CCCCC2)C1` (stereo not shown) [Example 4, 3-ethyl-3-(3-methoxyphenyl)-1-(2-(piperidin-1-yl)ethyl)azepane], with no less than 500 nM.
On the same count and under the same terms, the result for `CCOCCN1CCCCC(CC)(c2cccc(OC)c2)C1` (stereo not shown) [Example 5, 1-(2-ethoxyethyl)-3-ethyl-3-(3-methoxyphenyl)azepane] reads no less than 500 nM.
For the compound `CCC1(c2cccc(O)c2)CCCCN(CCN2CCN(C)CC2)C1` (stereo not shown) [Example 6, 3-(3-Ethyl-1-(2-(4-methylpiperazin-1-yl)ethyl)azepan-3-yl)phenol], the “μ and σ1 dual binding” value is reported as “++”.
On the same count and under the same terms, the result for `CCC1(c2cccc(O)c2)CCCCN(CCN2CCN(c3ccccc3)CC2)C1` (stereo not shown) [Example 7, 3-(3-ethyl-1-(2-(4-phenylpiperazin-1-yl)ethyl)azepan-3-yl)phenol] reads “++”; that for `CCC1(c2cccc(O)c2)CCCCN(CCN2CCOCC2)C1` (stereo not shown) [Example 8, 3-(3-ethyl-1-(2-morpholinoethyl)azepan-3-yl)phenol], “++”.
For `CCC1(c2cccc(O)c2)CCCCN(CCN2CCCCC2)C1` (stereo not shown) [Example 9, 3-(3-ethyl-1-(2-(piperidin-1-yl)ethyl)azepan-3-yl)phenol], the Ki is less than 500 nM.
Take `CCC1(c2cccc(O)c2)CCCCN(CCO)C1` (stereo not shown) [Example 10, 3-(3-ethyl-1-(2-hydroxyethyl)azepan-3-yl)phenol]: the “μ and σ1 dual binding” value is “++”.
`CCOCCN1CCCCC(CC)(c2cccc(O)c2)C1` (stereo not shown) [Example 11, 3-(1-(2-Ethoxyethyl)-3-ethylazepan-3-yl)phenol] gave a Ki of less than 100 nM.
`CCC1(c2cccc(O)c2)CCCCN(CCOC(C)C)C1` (stereo not shown) [Example 12, 3-(3-ethyl-1-(2-isopropoxyethyl)azepan-3-yl)phenol] registered a Ki of less than 500 nM.
Take `CCC1(c2cccc(O)c2)CCCCN(CC(=O)N2CCCCC2)C1` (stereo not shown) [Example 13, 2-(3-ethyl-3-(3-hydroxyphenyl)azepan-1-yl)-1-(piperidin-1-yl)ethanone]: the “μ and σ1 dual binding” value is “++”.
On the same count and under the same terms, the result for `CCC1(c2cccc(O)c2)CCCCN(CCOc2cccnc2)C1` (stereo not shown) [Example 14, 3-(3-ethyl-1-(2-(pyridin-3-yloxy)ethyl)azepan-3-yl)phenol] reads “++”.
As to `CCC1(c2cccc(O)c2)CCCCN(CC(=O)N2CCOCC2)C1` (stereo not shown) [Example 16, 2-(3-ethyl-3-(3-hydroxyphenyl)azepan-1-yl)-1-morpholinoethanone], the Ki is no less than 500 nM.
Take `CCC1(c2cccc(O)c2)CCCCN(CCOC)C1` (stereo not shown) [Example 17, 3-(3-ethyl-1-(2-methoxyethyl)azepan-3-yl)phenol]: the “μ and σ1 dual binding” value was “++”.
Still for that read-out and setting: then `CCC1(c2cccc(O)c2)CCCCN(CCOC2CC2)C1` (stereo not shown) [Example 18, 3-(1-(2-cyclopropoxyethyl)-3-ethylazepan-3-yl)phenol], with “++”; and `CCC1(c2cccc(O)c2)CCCCN(CCOCC(C)(C)O)C1` (stereo not shown) [Example 19, 3-(3-ethyl-1-(2-(2-hydroxy-2-methylpropoxy)ethyl)azepan-3-yl)phenol], with “++”.
Consider `CCOCCN1CCCCC(CC)(c2cccc(N)c2)C1` (stereo not shown) [Example 22, 3-[1-(2-Ethoxyethyl)-3-ethylazepan-3-yl]aniline], for which the Ki is no less than 500 nM.
In the case of `CCOCCN1CCCCC(CC)(c2cccc(NS(C)(=O)=O)c2)C1` (stereo not shown) [Example 23, N-{3-[1-(2-Ethoxyethyl)-3-ethylazepan-3-yl]phenyl}methanesulfonamide], the Ki is no less than 500 nM.
Consider `CCOCCN1CCCCC(CC)(c2cccc(NS(=O)(=O)C(C)C)c2)C1` (stereo not shown) [Example 24, N-{3-[1-(2-Ethoxyethyl)-3-ethylazepan-3-yl]phenyl}propane-2-sulfonamide], for which the Ki is no less than 500 nM.

For orientation: Ki means the dissociation constant of the complex between target and ligand, obtained from inhibition or displacement.
